Measured values published in patent publication US5162354A, “3-halo-5-halomethyl-2-oxazolidinones and their use as microbicides” (Buckman Laboratories International, Inc., priority 1991, dated 1992).
≈ marks a conversion by molar mass, not a printed value. Where two headings read alike, the source gives them in different places.

Key:
Type in all cases: cell-based
Streptococcus faecalis = test: AOAC Disinfectant Swimming Pool Assay (Streptococcus faecalis); conditions: Enterococcus faecalis, 10 min, contact time 10 minutes, read-out: MIC (Minimum inhibitory concentration required to inhibit microorganisms)
Protocol: (§1) This example was based on the procedure described in AOAC (Association of Official Analytical Chemists) Official Methods of Analysis (1986) pp 75-77. The results obtained by this method are suitable for presumptive evidence of acceptability of products for disinfecting swimming pool water. The results obtained for Compound 1 in a contact time of 10 minutes are noted in Table IV.

Aspergillus niger = test: Growth inhibiting activity on the fungus Aspergillus niger; conditions: Aspergillus niger pH 6.0; completely prevented growth; read-out: Minimum inhibitory concentration against fungi
Protocol: The microorganism growth inhibiting activity of compounds 1-4 on the fungus Aspergillus niger was evaluated. The method is described in U.S. Pat. No. 4,945,109, column 5 beginning at line 47 to column 6, line 33. The disclosure of U.S. Pat. No. 4,945,109 is incorporated herein by reference.

Enterobacter aerogenes = test: Basal salts method, minimum inhibitory concentration against Enterobacter aerogenes; conditions: Klebsiella aerogenes, at least 80% kill
Protocol: Compounds 1-4 of Examples 3-6 of the present invention were tested by the basal salts method described in U.S. Pat. No. 2,881,070 at column 5, beginning at line 12 and extending to column 6, line 53. […] The minimum inhibitory concentrations are those in which a percentage kill of at least 80% is obtained.

Salmonella choleraesuis = test: AOAC Disinfectant Swimming Pool Assay (Salmonella choleraesuis); conditions: Salmonella enterica, 10 min, contact time 10 minutes, read-out: MIC (Minimum inhibitory concentration required to inhibit microorganisms)
Protocol: as §1

Escherichia coli [1] = test: AOAC Germicidal and Detergent Sanitizing Action of Disinfectants (Escherichia coli)
Protocol: This test is conducted according to AOAC methods described in AOAC Official Methods of Analysis (1984) p 70. This test is suitable for chemicals that can be permitted for use in sanitizing precleaned non-porous food contact surfaces. This test also determines the effectiveness of compounds tested in hard water. Most of the detergents/sanitizers available in the market become ineffective in the presence of hard water, i.e. water containing calcium and/or magnesium ions. A water hardness value of 400 ppm was chosen because it is considered to be the highest hardness value for tap water in the United States.

Escherichia coli [2] = test: Efficacy of Sanitizers Recommended for Non-Food Contact Surfaces, ASTM E 1153-87 (Escherichia coli); conditions: 99.9% kill, read-out: Minimum inhibitory concentration required to inhibit microorganisms
Protocol: (§2) This test method is used to evaluate the antimicrobial efficacy of sanitizers on precleaned non-porous, non-food contact surfaces. This test was performed according to the test procedure E 1153-87 of ASTM. […] For most of the sanitizers, effectiveness is hampered (or minimum inhibitory concentrations go up) in the presence of an organic load. Therefore, the compounds of the present invention are tested both in the presence and absence of 5% organic load (Bovine albumin fraction V, Sigma Chemical Company).

Chlorella pyrenoidosa = test: Growth inhibiting activity against algae in Difco Algae Broth (Chlorella pyrenoidosa); conditions: Auxenochlorella pyrenoidosa, 672 h, pH 7, read-out: Minimum inhibitory concentration against algae
Protocol: (§3) The growth inhibiting activity of the method of the invention against the three algae Chlorella pyrenoidosa, Chlorococcum hypnosporum and Phormidium inundatum was evaluated in Difco Algae Broth, the content of which was as follows:
(§4) Forty-gram portions of the algae medium were added to 250 mL Pyrex Erlenmeyer flasks fitted with loose metal caps and then sterilized. Each of the following substances was then added to the flasks in the order listed:
(§5) 1. Sterile algae medium as required to bring the total weight of the contents of each flask to 50 grams, after allowing for all subsequent additions specified below.
(§6) 2. A solution of one of compounds 1-4 or of a control agent to be evaluated in each test, to give the concentration desired in parts per million by weight.
(§7) 3. Chlorella pyrenoidosa, Chlorococcum hypnosporum and Phormidium inundatum in amounts sufficient to give excellent growth in the controls after 14 days. This was achieved by adding 1 milliliter of a 14 day old culture having luxuriant growth. The Chlorella pyrenoidosa culture was obtained from American Type Culture Collection No. 7516; Chlorococcum hypnosporum, from the University of TX at Austin; and Phormidium inundatum, WI No. 1093, from the University of WA.
(§8) As a control experiment, WSCP was used as a positive control agent. WSCP is a known toxicant which kills C. pyrenoidosa at 2 ppm, C. hypnosporum at 2ppm, and P. inundatum at 10 ppm. Control experiments were also carried out where no toxicants were employed. In the algicidal tests, the growth of algae in the nutrient medium is lush green and can be seen with the naked eye. Because the minimum inhibitory concentrations of the compounds in this example are those which result in complete inhibition, evaluation of the test results is not subjective.
(§9) After the inoculum of the test algae was added, the flasks were incubated at a temperature of 28°±2° C. under fluorescent illumination of 250 foot-candle intensity (8 hours light, 16 hours darkness) for a period adequate for growth in the controls (those portions of medium which contained no toxicant). Observations of growth were made at 7-day intervals. Minimum inhibitory concentrations are those that prevented complete growth after 28 days.

Chlorococcum hypnosporum = test: Growth inhibiting activity against algae in Difco Algae Broth (Chlorococcum hypnosporum); conditions: 672 h, pH 7, read-out: Minimum inhibitory concentration against algae
Protocol: as §3, §4, §5, §6, §7, §8, §9

Staphylococcus aureus = test: Efficacy of Sanitizers Recommended for Non-Food Contact Surfaces, ASTM E 1153-87 (Staphylococcus aureus); conditions: 99.9% kill, read-out: Minimum inhibitory concentration required to inhibit microorganisms
Protocol: as §2

Phormidium inundatum = test: Growth inhibiting activity against algae in Difco Algae Broth (Phormidium inundatum); conditions: 672 h, pH 7, read-out: Minimum inhibitory concentration against algae
Protocol: as §3, §4, §5, §6, §7, §8, §9

[3] = With 5% organic load (bovine albumin)

With `O=C1OC(CCl)CN1Br` (centres unmarked) [Compound 1, 3-Bromo-5-chloromethyl-2-oxazolidinone] the MIC (Streptococcus faecalis) was 80 µg/mL (≈ 373 µM), the MIC (Aspergillus niger) was 10 µg/mL (≈ 46.6 µM) and the MIC (Enterobacter aerogenes; pH 6.0) was 10 µg/mL. The MIC (Enterobacter aerogenes; pH 8.0) was 10 µg/mL, the MIC (Salmonella choleraesuis) was 80 µg/mL (≈ 373 µM) and the “Minimum inhibitory concentration required to inhibit microorganisms” value (Escherichia coli [1]; Hard Water (400 ppm calcium carbonate)) was 80 parts per million (w/v). It also gave an MIC (Escherichia coli [1]; Soft Water, read-out: Minimum inhibitory concentration required to inhibit microorganisms) of 80 µg/mL (≈ 373 µM), an MIC (Escherichia coli [2]; [3]) of 160 µg/mL (≈ 746 µM) and an MIC (Escherichia coli [2]; Without organic load) of 80 µg/mL (≈ 373 µM). The MIC (Chlorella pyrenoidosa) was 10 µg/mL (≈ 46.6 µM), the MIC (Chlorococcum hypnosporum) was 10 µg/mL (≈ 46.6 µM) and the MIC (Staphylococcus aureus; [3]) was 160 µg/mL (≈ 746 µM). The MIC (Staphylococcus aureus; Without organic load) was 80 µg/mL (≈ 373 µM) and the MIC (Phormidium inundatum) was 2 µg/mL (≈ 9.33 µM).
